In patent publication US10047096B2, “Substituted pyridobenzodiazepinone-derivatives and use thereof” (Bayer Pharma Aktiengesellschaft, priority 2014, dated 2018):

Biological target: human PDGFRβ (Homo sapiens (Human), UniProt P09619)
Assay: PDGFRβ kinase assay (PDGFRβ-HTRF)
Assay type: biochemical
Conditions: 10 μM ATP; some mean values from multiple determinations
Experimental: The PDGFRβ-inhibitory activity of the inventive compounds was determined in the PDGFRβ-HTRF assay described hereinafter.
The kinase used was a recombinant fusion protein composed of N-terminal GST and a C-terminal fragment of human PDGFRβ (amino acids R561-L1106), expressed in baculovirus-infected insect cells (Sf9) and purified by affinity chromatography (from ProQinase GmbH, Freiburg, Germany). The substrate used for the kinase reaction was biotinylated poly-Glu,Tyr (4:1) copolymer (from Cisbio Bioassays, Codolet, France).
For the assay, 50 nl of a 100-fold concentrated solution of the test substance in DMSO was pipetted into a black “low-volume 384 well” microtitre plate (from Greiner Bio-One, Frickenhausen, Germany), then 2 μl of a solution of PDGFRβ in assay buffer [50 mM HEPES/NaOH pH 7.5, 10 mM MgCl2, 2.5 mM dithiothreitol, 0.01% (v/v) Triton-X100 (from Sigma)] was added and the mixture was incubated for 15 min, in order to enable preliminary binding of the substance to the enzyme before the kinase reaction. […] The resulting mixture was incubated at 22° C. for 1 h to allow formation of a complex of the biotinylated phosphorylated substrate and the detection reagents.
Subsequently, the amount of the phosphorylated substrate was evaluated by measuring the resonance energy transfer from the PT66-Eu chelate to the streptavidin-XL665. […] The IC50 values were calculated by a 4-parameter fit.

human PDGFRβ, sequence (P09619 561-1106): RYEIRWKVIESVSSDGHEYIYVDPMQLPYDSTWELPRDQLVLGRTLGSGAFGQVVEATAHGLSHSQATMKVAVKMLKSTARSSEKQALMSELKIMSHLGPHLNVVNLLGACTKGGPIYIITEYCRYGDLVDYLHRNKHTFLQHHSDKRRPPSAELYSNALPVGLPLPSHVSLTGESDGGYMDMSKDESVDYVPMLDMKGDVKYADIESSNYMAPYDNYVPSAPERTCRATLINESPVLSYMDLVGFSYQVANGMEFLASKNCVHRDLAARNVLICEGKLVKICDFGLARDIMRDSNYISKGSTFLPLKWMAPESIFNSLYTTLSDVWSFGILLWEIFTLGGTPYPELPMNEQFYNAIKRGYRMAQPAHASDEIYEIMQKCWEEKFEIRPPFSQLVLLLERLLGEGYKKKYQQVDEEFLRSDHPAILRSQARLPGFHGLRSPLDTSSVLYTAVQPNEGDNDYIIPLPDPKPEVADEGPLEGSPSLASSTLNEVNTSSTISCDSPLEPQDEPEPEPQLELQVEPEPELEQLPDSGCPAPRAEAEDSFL

Row | Structure (SMILES) | IC50
1 | Cc1cc(F)c(Nc2ccnc3c2C(=O)Nc2cc(CN(C)C)ccc2N3)cc1O [Example 33, 8-[(Dimethylamino)methyl]-4-[(2-fluoro-5-hydroxy-4-methylphenyl)amino]-6,11-dihydro-5H-pyrido[2,3-b][1,5]benzodiazepin-5-one] | 4.3 nM
2 | N#Cc1ccc2c(c1)NC(=O)c1c(Nc3cc(O)c(Cl)cc3F)ccnc1N2 [Example 37, 4-[(4-chloro-2-fluoro-5-hydroxyphenyl)amino]-5-oxo-6,11-dihydro-5H-pyrido[2,3-b][1,5]benzodiazepine-8-carbonitrile] | 4.6 nM
3 | Cc1cc(F)c(Nc2ccnc3c2C(=O)Nc2cc(CN(C)CCCO)ccc2N3)cc1O [Example 221, 4-[(2-Fluoro-5-hydroxy-4-methylphenyl)amino]-8-{[(3-hydroxypropyl)(methyl)amino]methyl}-6,11-dihydro-5H-pyrido[2,3-b][1,5]benzodiazepin-5-one] | 1.74 nM
4 | COC1CCCN(Cc2ccc3c(c2)NC(=O)c2c(Nc4cc(O)c(C)cc4F)ccnc2N3)C1 (racemic) [Example 66, rac-4-[(2-Fluoro-5-hydroxy-4-methylphenyl)amino]-8-[(3-methoxypiperidin-1-yl)methyl]-6,11-dihydro-5H-pyrido[2,3-b][1,5]benzodiazepin-5-one] | 3.75 nM
5 | CCN(CC)CC(C)NCc1ccc2c(c1)NC(=O)c1c(Nc3cc(O)ccc3C)ccnc1N2 (stereo not shown) [Example 112] | 2.34 nM
6 | CCC(C)CNCc1ccc2c(c1)NC(=O)c1c(Nc3cc(O)ccc3C)ccnc1N2 (stereo not shown) [Example 153] | 3.61 nM
7 | Cc1ccc(O)cc1Nc1ccnc2c1C(=O)Nc1cc(CNCC3CC3)ccc1N2 [Example 127] | 3.52 nM
8 | CCOC(=O)[C@H]1C[C@@H](NCc2ccc3c(c2)NC(=O)c2c(Nc4cc(O)c(C)cc4F)ccnc2N3)C1 [Example 191, cis-Ethyl 3-[({4-[(2-fluoro-5-hydroxy-4-methylphenyl)amino]-5-oxo-6,11-dihydro-5H-pyrido[2,3-b][1,5]benzodiazepin-8-yl}methyl)amino]cyclobutanecarboxylate] | 0.626 nM
9 | Cc1cc(F)c(Nc2ccnc3c2C(=O)Nc2cc(CN4CCNCC4)ccc2N3)cc1O [Example 197, 4-[(2-Fluoro-5-hydroxy-4-methylphenyl)amino]-8-(piperazin-1-ylmethyl)-6,11-dihydro-5H-pyrido[2,3-b][1,5]benzodiazepin-5-one] | 0.861 nM
10 | Cc1ccc(O)cc1Nc1ccnc2c1C(=O)Nc1cc(C#N)ccc1N2 [Example 1, 4-[(5-Hydroxy-2-methylphenyl)amino]-5-oxo-6,11-dihydro-5H-pyrido[2,3-b][1,5]benzodiazepine-8-carbonitrile] | 5.43 nM
11 | Cc1ccn(CCCNCc2ccc3c(c2)NC(=O)c2c(Nc4cc(O)ccc4C)ccnc2N3)n1 [Example 101] | 2.98 nM
12 | COCCOCCCNCc1ccc2c(c1)NC(=O)c1c(Nc3cc(O)ccc3C)ccnc1N2 [Example 116] | 4.75 nM
13 | Cc1cc(F)c(Nc2ccnc3c2C(=O)Nc2cc(CN[C@@H](CO)Cc4cnc[nH]4)ccc2N3)cc1O [Example 184, 4-[(2-Fluoro-5-hydroxy-4-methylphenyl)amino]-8-({[(2R)-1-hydroxy-3-(1H-imidazol-5-yl)propan-2-yl]amino}methyl)-6,11-dihydro-5H-pyrido[2,3-b][1,5]benzodiazepin-5-one] | 1.62 nM
14 | Cc1cc(F)c(Nc2ccnc3c2C(=O)Nc2cc(CNC(C)C4CCCCC4)ccc2N3)cc1O (racemic) [Example 77, rac-8-{[(1-Cyclohexylethyl)amino]methyl}-4-[(2-fluoro-5-hydroxy-4-methylphenyl)amino]-6,11-dihydro-5H-pyrido[2,3-b][1,5]benzodiazepin-5-one] | 4.9 nM
15 | Cc1cc(F)c(Nc2ccnc3c2C(=O)Nc2cc(CN4CCC(O)CC4)ccc2N3)cc1O [Example 45, 4-[(2-Fluoro-5-hydroxy-4-methylphenyl)amino]-8-[(4-hydroxypiperidin-1-yl)methyl]-6,11-dihydro-5H-pyrido[2,3-b][1,5]benzodiazepin-5-one] | 0.928 nM
16 | Cc1ccc(O)cc1Nc1ccnc2c1C(=O)Nc1cc(CNCc3cccc(Cl)c3)ccc1N2 [Example 15, 8-{[(3-Chlorobenzyl)amino]methyl}-4-[(5-hydroxy-2-methylphenyl)amino]-6,11-dihydro-5H-pyrido[2,3-b][1,5]benzodiazepin-5-one] | 5.77 nM
17 | Cc1ccc(O)cc1Nc1ccnc2c1C(=O)Nc1cc(CNCC(F)(F)F)ccc1N2 [Example 14, 4-[(5-Hydroxy-2-methylphenyl)amino]-8-{[(2,2,2-trifluoroethyl)amino]methyl}-6,11-dihydro-5H-pyrido[2,3-b][1,5]benzodiazepin-5-one] | 9.14 nM

Row | Structure (SMILES) | IC50
18 | CCN(Cc1ccc2c(c1)NC(=O)c1c(Nc3cc(O)c(C)cc3F)ccnc1N2)CC(C)O (single isomer, unassigned; ent-8) [Example 206, ent-8-{[Ethyl(2-hydroxypropyl)amino]methyl}-4-[(2-fluoro-5-hydroxy-4-methylphenyl)amino]-6,11-dihydro-5H-pyrido[2,3-b][1,5]benzodiazepin-5-one (Enantiomer 2)] | 1.55 nM
19 | Cc1ccc(O)cc1Nc1ccnc2c1C(=O)Nc1cc(CNCC(C)Cn3cccn3)ccc1N2 (stereo not shown) [Example 114] | 1.83 nM
20 | Cc1ccc(O)cc1Nc1ccnc2c1C(=O)Nc1cc(CNCCn3ccnn3)ccc1N2 [Example 97] | 2.45 nM
21 | Cc1ccc(O)cc1Nc1ccnc2c1C(=O)Nc1cc(CNC3CCOC3)ccc1N2 (stereo not shown) [Example 99] | 2.97 nM
22 | Cc1cc(F)c(Nc2ccnc3c2C(=O)Nc2cc(CN4CC5CC5C4CO)ccc2N3)cc1O (stereo not drawn) [Example 164, 4-[(2-Fluoro-5-hydroxy-4-methylphenyl)amino]-8-{[cis-2-(hydroxymethyl)-3-azabicyclo[3.1.0]hex-3-yl]methyl}-6,11-dihydro-5H-pyrido[2,3-b][1,5]benzodiazepin-5-one] | 3.71 nM
23 | Cc1cc(F)c(Nc2ccnc3c2C(=O)Nc2cc(C#N)ccc2N3)cc1O [Example 27, 4-[(2-Fluoro-5-hydroxy-4-methylphenyl)amino]-5-oxo-6,11-dihydro-5H-pyrido[2,3-b][1,5]benzodiazepine-8-carbonitrile] | 15.3 nM
24 | Cc1cc(F)c(Nc2ccnc3c2C(=O)Nc2cc(C(=O)N4CCOCC4)ccc2N3)cc1O [Example 85, 4-[(2-Fluoro-5-hydroxy-4-methylphenyl)amino]-8-(morpholin-4-ylcarbonyl)-6,11-dihydro-5H-pyrido[2,3-b][1,5]benzodiazepin-5-one] | 13.9 nM
25 | Cc1cc(F)c(Nc2ccnc3c2C(=O)Nc2cc(CN4CCC(N)CC4)ccc2N3)cc1O [Example 218, 8-[(4-Aminopiperidin-1-yl)methyl]-4-[(2-fluoro-5-hydroxy-4-methylphenyl)amino]-6,11-dihydro-5H-pyrido[2,3-b][1,5]benzodiazepin-5-one] | 1.06 nM
26 | Cc1cc(F)c(Nc2ccnc3c2C(=O)Nc2cc(CN4CCN(C)CC4)ccc2N3)cc1O [Example 46, 4-[(2-Fluoro-5-hydroxy-4-methylphenyl)amino]-8-[(4-methylpiperazin-1-yl)methyl]-6,11-dihydro-5H-pyrido[2,3-b][1,5]benzodiazepin-5-one] | 1.52 nM
27 | CCCC1CCN(Cc2ccc3c(c2)NC(=O)c2c(Nc4cc(O)c(C)cc4F)ccnc2N3)CC1 [Example 54, 4-[(2-Fluoro-5-hydroxy-4-methylphenyl)amino]-8-[(4-propylpiperidin-1-yl)methyl]-6,11-dihydro-5H-pyrido[2,3-b][1,5]benzodiazepin-5-one] | 6.51 nM
28 | Cc1cc(F)c(Nc2ccnc3c2C(=O)Nc2cc(CNC4CCCC4)ccc2N3)cc1O [Example 226, 8-[(Cyclopentylamino)methyl]-4-[(2-fluoro-5-hydroxy-4-methylphenyl)amino]-6,11-dihydro-5H-pyrido[2,3-b][1,5]benzodiazepin-5-one] | 1.09 nM
29 | Cc1ccc(O)cc1Nc1ccnc2c1C(=O)Nc1cc(CNc3ccccc3)ccc1N2 [Example 26, 8-Anilinomethyl-4-[(5-hydroxy-2-methylphenyl)amino]-6,11-dihydro-5H-pyrido[2,3-b][1,5]benzodiazepin-5-one] | 60.3 nM
30 | CCN(Cc1ccc2c(c1)NC(=O)c1c(Nc3cc(O)c(C)cc3F)ccnc1N2)CC(C)O (racemic) [Example 204, rac-8-{[Ethyl(2-hydroxypropyl)amino]methyl}-4-[(2-fluoro-5-hydroxy-4-methylphenyl)amino]-6,11-dihydro-5H-pyrido[2,3-b][1,5]benzodiazepin-5-one] | 1.71 nM
31 | Cc1ccc(O)cc1Nc1ccnc2c1C(=O)Nc1cc(CNC(C)(C)CN3CCCC3)ccc1N2 [Example 131] | 2.05 nM
32 | Cc1cc(F)c(Nc2ccnc3c2C(=O)Nc2cc(CNCCc4ccncc4)ccc2N3)cc1O [Example 74, 4-[(2-Fluoro-5-hydroxy-4-methylphenyl)amino]-8-({[2-(pyridin-4-yl)ethyl]amino}methyl)-6,11-dihydro-5H-pyrido[2,3-b][1,5]benzodiazepin-5-one] | 0.475 nM
33 | Cc1ccc(O)cc1Nc1ccnc2c1C(=O)Nc1cc(CNC3CCN(C)CC3)ccc1N2 [Example 138] | 2.41 nM
34 | Cc1ccc(O)cc1Nc1ccnc2c1C(=O)Nc1cc(CNC3CCC3)ccc1N2 [Example 20, 8-[(Cyclobutylamino)methyl]-4-[(5-hydroxy-2-methylphenyl)amino]-6,11-dihydro-5H-pyrido[2,3-b][1,5]benzodiazepin-5-one] | 2.89 nM
